From patent publication US20110313156A1 (BOEHRINGER INGELHEIM INTERNATIONAL GMBH, priority 2008, published 2011)

Target: T1, His6-PDK1 (aa 52-556) (Homo sapiens, UniProt O15530)
T1 construct: 15 μL His6-PDK1 (aa 52-556) 3.33 ng/well); host or cells: baculovirus-infected insect cells
T1 sequence (O15530 52-556): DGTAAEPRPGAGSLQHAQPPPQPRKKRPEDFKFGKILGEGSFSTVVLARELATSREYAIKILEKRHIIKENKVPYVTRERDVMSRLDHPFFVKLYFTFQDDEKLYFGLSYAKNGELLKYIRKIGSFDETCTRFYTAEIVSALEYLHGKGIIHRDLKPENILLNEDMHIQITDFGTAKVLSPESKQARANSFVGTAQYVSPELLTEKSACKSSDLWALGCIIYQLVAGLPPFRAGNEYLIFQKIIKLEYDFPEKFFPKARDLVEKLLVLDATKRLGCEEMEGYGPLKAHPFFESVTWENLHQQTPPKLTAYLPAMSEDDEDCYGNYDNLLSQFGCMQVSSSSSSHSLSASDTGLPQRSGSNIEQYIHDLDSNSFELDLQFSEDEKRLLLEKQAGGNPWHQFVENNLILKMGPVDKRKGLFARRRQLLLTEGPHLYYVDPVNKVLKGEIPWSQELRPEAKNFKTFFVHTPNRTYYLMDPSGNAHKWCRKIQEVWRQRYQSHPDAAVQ
Experiment: PDK1 kinase assay III (with Tween 20)
Type: biochemical
Conditions: compound at 10 μM; PDK1 kinase assay III (values without asterisk); read-out: % CTL (residual activity of the enzyme relative to DMSO control)
In short: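 Started with ATP, incubated 90 min at ambient temperature, then stopped with phosphoric acid. Asterisked values come from assay II (24 h or 5 min incubation).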

Compound	remaining activity at 10 µM [%]
Cc1c(C(=O)NCC#Cc2ccc3c(-c4ccco4)n[nH]c3c2)c(=O)n(Cc2ccc(F)c(F)c2)n1C [II-5, 2-(3,4-difluorobenzyl)-N-{3-[3-(furan-2-yl)-1H-indazol-6-yl]prop-2-yn-1-yl}-1,5-dimethyl-3-oxo-2,3-dihydro-1H-pyrazole-4-carboxamide]	22.7
Cc1c(C(=O)NC/C=C\c2ccc3c(-c4ccco4)n[nH]c3c2)c(=O)n(Cc2ccc(F)c(F)c2)n1C [II-6, 2-(3,4-difluorobenzyl)-N-{(2Z)-3-[3-(furan-2-yl)-1H-indazol-6-yl]prop-2-en-1-yl}-1,5-dimethyl-3-oxo-2,3-dihydro-1H-pyrazole-4-carboxamide]	21.4
Cc1c(C(=O)NC/C=C\c2ccc3cn[nH]c3c2)c(=O)n(Cc2ccc(F)c(F)c2)n1C [II-7, 2-(3,4-difluorobenzyl)-N-[(2Z)-3-(1H-indazol-6-yl)prop-2-en-1-yl]-1,5-dimethyl-3-oxo-2,3-dihydro-1H-pyrazole-4-carboxamide]	27.4
Cc1c(C(=O)NCC#Cc2ccc3c(-c4ccc(CN(C)C)cc4)n[nH]c3c2)c(=O)n(Cc2ccc(F)c(F)c2)n1C [II-8, 2-(3,4-difluorobenzyl)-N-[3-(3-{4-[(dimethylamino)methyl]phenyl}-1H-indazol-6-yl)prop-2-yn-1-yl]-1,5-dimethyl-3-oxo-2,3-dihydro-1H-pyrazole-4-carboxamide]	16.5
CN(C)Cc1ccc(-c2n[nH]c3cc(C#CCNC(=O)c4cncn(Cc5ccc(F)c(F)c5)c4=O)ccc23)cc1 [II-9, 1-(3,4-difluorobenzyl)-N-[3-(3-{4-[(dimethylamino)methyl]phenyl}-1H-indazol-6-yl)prop-2-yn-1-yl]-6-oxo-1,6-dihydropyrimidine-5-carboxamide]	10.7
Cc1c(C(=O)NCC#Cc2ccc3nc(Nc4ccccc4)ncc3c2)c(=O)n(Cc2ccc(F)c(F)c2)n1C [III-15, 2-(3,4-difluorobenzyl)-1,5-dimethyl-3-oxo-N-{3-[2-(phenylamino)quinazolin-6-yl]prop-2-yn-1-yl}-2,3-dihydro-1H-pyrazole-4-carboxamide]	19.1
CN(C)Cc1ccc(Nc2ncc3cc(C#CCNC(=O)c4cncn(Cc5ccc(F)c(F)c5)c4=O)ccc3n2)cc1 [III-16, 1-(3,4-difluorobenzyl)-N-{3-[2-({4-[(dimethylamino)methyl]phenyl}amino)quinazolin-6-yl]prop-2-yn-1-yl}-6-oxo-1,6-dihydropyrimidine-5-carboxamide]	9.5
CN(C)Cc1ccc(Nc2ncc3cc(C#CCNC(=O)c4nccn(Cc5ccc(F)c(F)c5)c4=O)ccc3n2)cc1 [III-17, 4-(3,4-difluorobenzyl)-N-{3-[2-({4-[(dimethylamino)methyl]phenyl}amino)quinazolin-6-yl]prop-2-yn-1-yl}-3-oxo-3,4-dihydropyrazine-2-carboxamide]	13.7
Cc1c(C(=O)NCC#Cc2ccc3nc(Nc4ccc(CN(C)C)cc4)ncc3c2)c(=O)n(Cc2ccccc2)n1C [III-18, 2-benzyl-N-{3-[2-({4-[(dimethylamino)methyl]phenyl}amino)quinazolin-6-yl]prop-2-yn-1-yl}-1,5-dimethyl-3-oxo-2,3-dihydro-1H-pyrazole-4-carboxamide]	14.7
O=C(NC/C=C/c1cc(OC2CCNCC2)c2nc(Nc3ccccc3)ncc2c1)c1cncn(Cc2ccc(F)c(F)c2)c1=O [III-19, 1-(3,4-difluorobenzyl)-6-oxo-N-{(2E)-3-[2-(phenylamino)-8-(piperidin-4-yloxy)quinazolin-6-yl]prop-2-en-1-yl}-1,6-dihydropyrimidine-5-carboxamide]	17.5
Cc1c(C(=O)NCC#Cc2ccc3nc(Nc4ccc(CN(C)C)cc4)ncc3c2)c(=O)n(Cc2ccc(F)c(F)c2)n1C [III-20, 2-(3,4-difluorobenzyl)-N-{3-[2-({4-[(dimethylamino)methyl]phenyl}amino)-quinazolin-6-yl]prop-2-yn-1-yl}-1,5-dimethyl-3-oxo-2,3-dihydro-1H-pyrazole-4-carboxamide]	13.7
Cn1c(=O)c(C#CCNC(=O)c2cncn(Cc3ccc(F)c(F)c3)c2=O)cc2cnc(Nc3ccccc3)nc21 [III-22, 1-(3,4-difluorobenzyl)-N-{3-[8-methyl-7-oxo-2-(phenylamino)-7,8-dihydropyrido-[2,3-d]pyrimidin-6-yl]prop-2-yn-1-yl}-6-oxo-1,6-dihydropyrimidine-5-carboxamide]	24.9
CN(C)Cc1ccc(Nc2ncc3c(F)c(C#CCNC(=O)c4cncn(Cc5ccc(F)c(F)c5)c4=O)ccc3n2)cc1 [III-24, 1-(3,4-difluorobenzyl)-N-{3-[2-({4-[(dimethylamino)methyl]phenyl}amino)-5-fluoroquinazolin-6-yl]prop-2-yn-1-yl}-6-oxo-1,6-dihydropyrimidine-5-carboxamide]	8.9
Cc1c(C(=O)NCC#Cc2ccc3nc(Nc4ccc(CN(C)C)cc4)ncc3c2F)c(=O)n(Cc2ccc(F)c(F)c2)n1C [III-25, 2-(3,4-difluorobenzyl)-N-{3-[2-({4-[(dimethylamino)methyl]phenyl}amino)-5-fluoroquinazolin-6-yl]prop-2-yn-1-yl}-1,5-dimethyl-3-oxo-2,3-dihydro-1H-pyrazole-4-carboxamide]	11.7
CN1CCC(N(C)c2ccc(Nc3ncc4c(F)c(C#CCNC(=O)c5cncn(Cc6ccc(F)c(F)c6)c5=O)ccc4n3)cc2)CC1 [III-26, 1-(3,4-difluorobenzyl)-N-{3-[5-fluoro-2-({4-[methyl(1-methylpiperidin-4-yl)amino]phenyl}amino)quinazolin-6-yl]prop-2-yn-1-yl}-6-oxo-1,6-dihydropyrimidine-5-carboxamide]	12.4
Cc1c(C(=O)NCC#Cc2ccc3nc(Nc4ccc(N(C)C5CCN(C)CC5)cc4)ncc3c2F)c(=O)n(Cc2ccc(F)c(F)c2)n1C [III-27, 2-(3,4-difluorobenzyl)-N-{3-[5-fluoro-2-({4-[methyl(1-methylpiperidin-4-yl)amino]phenyl}amino)quinazolin-6-yl]prop-2-yn-1-yl}-1,5-dimethyl-3-oxo-2,3-dihydro-1H-pyrazole-4-carboxamide]	12.8
Cc1c(C#CCNC(=O)c2cncn(Cc3ccc(F)c(F)c3)c2=O)c(=O)n(C(C)C)c2nc(Nc3ccc(N4CCOCC4)cc3)ncc12 [III-29, 1-(3,4-difluorobenzyl)-N-{3-[5-methyl-2-{[4-(morpholin-4-yl)phenyl]amino}-7-oxo-8-(propane-2-yl)-7,8-dihydropyrido[2,3-d]pyrimidin-6-yl]prop-2-yn-1-yl}-6-oxo-1,6-dihydropyrimidine-5-carboxamide]	16.4
CN1CCC(N(C)c2ccc(Nc3ncc4cc(C#CCNC(=O)c5cncn(Cc6ccc(F)c(F)c6)c5=O)ccc4n3)cc2)CC1 [III-30, 1-(3,4-difluorobenzyl)-N-{3-[2-({4-[methyl(1-methylpiperidin-4-yl)amino]phenyl}amino)quinazolin-6-yl]prop-2-yn-1-yl}-6-oxo-1,6-dihydropyrimidine-5-carboxamide]	11.4
Cc1c(C(=O)NCC#Cc2ccc3nc(Nc4ccc(NC5CCN(C)CC5)c(F)c4)ncc3c2)c(=O)n(Cc2ccc(F)c(F)c2)n1C [III-32, 2-(3,4-difluorobenzyl)-N-{3-[2-({3-fluoro-4-[(1-methylpiperidin-4-yl)amino]phenyl}amino)quinazolin-6-yl]prop-2-yn-1-yl}-1,5-dimethyl-3-oxo-2,3-dihydro-1H-pyrazole-4-carboxamide]	13.1
CN1CCC(Nc2ccc(Nc3ncc4cc(C#CCNC(=O)c5cn(C)c(=O)n(Cc6ccc(F)c(F)c6)c5=O)ccc4n3)cc2F)CC1 [III-33, 3-(3,4-difluorobenzyl)-N-{3-[2-({3-fluoro-4-[(1-methylpiperidin-4-yl)amino]phenyl}amino)quinazolin-6-yl]prop-2-yn-1-yl}-1-methyl-2,4-dioxo-1,2,3,4-tetrahydropyrimidine-5-carboxamide]	22.8
CN1CCC(N(C)c2ccc(Nc3ncc4cc(C#CCNC(=O)c5nccn(Cc6ccc(F)c(F)c6)c5=O)ccc4n3)cc2)CC1 [III-34, 4-(3,4-difluorobenzyl)-N-{3-[2-({4-[methyl(1-methylpiperidin-4-yl)amino]phenyl}amino)quinazolin-6-yl]prop-2-yn-1-yl}-3-oxo-3,4-dihydropyrazine-2-carboxamide]	10.7
CN1CCC(Nc2ccc(Nc3ncc4cc(C#CCNC(=O)c5nccn(Cc6ccc(F)c(F)c6)c5=O)ccc4n3)cc2F)CC1 [III-35, 4-(3,4-difluorobenzyl)-N-{3-[2-({3-fluoro-4-[(1-methylpiperidin-4-yl)amino]-phenyl}amino)quinazolin-6-yl]prop-2-yn-1-yl}-3-oxo-3,4-dihydropyrazine-2-carboxamide]	14.9
CN1CCC(N(C)c2ccc(Nc3ncc4cc(C#CCNC(=O)c5ccnn(Cc6ccc(F)c(F)c6)c5=O)ccc4n3)cc2)CC1 [III-36, 2-(3,4-difluorobenzyl)-N-{3-[2-({4-[methyl(1-methylpiperidin-4-yl)amino]phenyl}amino)quinazolin-6-yl]prop-2-yn-1-yl}-3-oxo-2,3-dihydropyridazine-4-carboxamide]	13.2
